The experiment concerns HIV wild type (WTRVA). In words: HeLa cell assay, wild type virus (WTRVA). The format is cell-based, HIV-1. Further details: scale not given here. To be noted: Human immunodeficiency virus 1, HeLa.
Where [1] appears, read: HeLa-CD4-LTR-β-gal cells, wild type virus, read-out: WTRVA activity level.
Where [2] appears, read: HeLa cell assay, read-out: IC50 against WTRVA.

pIC50: −log10 of the molar value. Counter-ions that a name gives are not always drawn. Like-named read-outs stand apart in the source and are kept apart here. Bounds are passed on as bounds.

Take `N#Cc1cc(Cl)cc(Oc2c(Cl)ccc(CNC(=O)c3[nH]cnc3[N+](=O)[O-])c2F)c1` [Example 68, N-({4-chloro-3-[(3-chloro-5-cyanophenyl)oxy]-2-fluorophenyl}methyl)-4-nitro-1H-imidazole-5-carboxamide trifluoroacetate]: under setting [1], the pIC50 was over 8.00.
For the molecule `COc1cc(C#N)cc(Oc2c(Cl)ccc(CNC(=O)c3[nH]c(N)nc3Cl)c2F)c1` [Example 366, 2-amino-4-chloro-N-[(4-chloro-3-{[3-cyano-5-(methyloxy)phenyl]oxy}-2-fluorophenyl)methyl]-1H-imidazole-5-carboxamide trifluoroacetate], the pIC50 under setting [2] was over 8.00.
Same read-out and setting: to `N#Cc1cc(Br)cc(Oc2c(Cl)ccc(CNC(=O)c3[nH]cnc3Cl)c2F)c1` [Example 150, N-({3-[(3-bromo-5-cyanophenyl)oxy]-4-chloro-2-fluorophenyl}methyl)-4-chloro-1H-imidazole-5-carboxamide] belongs over 8.00.
On to `N#Cc1cc(Cl)cc(Oc2c(Cl)ccc(CNC(=O)c3cc4cc(NC(=O)[C@@H]5CCCN5)ccc4[nH]3)c2F)c1` [Example 118, N-({4-chloro-3-[(3-chloro-5-cyanophenyl)oxy]-2-fluorophenyl}methyl)-5-(L-prolylamino)-1H-indole-2-carboxamide trifluoroacetate], for which the pIC50 under setting [1] is over 8.00.
On the same count and under the same terms, for `N#Cc1cc(Cl)cc(Oc2c(Cl)ccc(CNC(=O)c3cc4ccccc4[nH]3)c2F)c1` [Example 28, N-({4-chloro-3-[(3-chloro-5-cyanophenyl)oxy]-2-fluorophenyl}methyl)-1H-indole-2-carboxamide] the value was over 8.00; for `N#Cc1cc(Cl)cc(Oc2cc(CNC(=O)c3ccc(Cl)c(S(N)(=O)=O)c3)ccc2Cl)c1` [Example 5, 3-(aminosulfonyl)-4-chloro-N-({4-chloro-3-[(3-chloro-5-cyanophenyl)oxy]phenyl}methyl)benzamide trifluoroacetate], 6.00 to 8.00.
As to `N#Cc1cc(Cl)cc(Oc2c(Cl)ccc(CNC(=O)c3cc4cc(OCC[C@H](O)CO)ccc4[nH]3)c2F)c1` [Example 107, N-({4-chloro-3-[(3-chloro-5-cyanophenyl)oxy]-2-fluorophenyl}methyl)-5-{[(3S)-3,4-dihydroxybutyl]oxy}-1H-indole-2-carboxamide], under setting [1], the pIC50 was over 8.00.
Consider `N#Cc1cc(Cl)cc(Oc2c(Cl)ccc(CNC(=O)c3csc(-c4ccncc4)n3)c2F)c1` [Example 88, N-({4-chloro-3-[(3-chloro-5-cyanophenyl)oxy]-2-fluorophenyl}methyl)-2-(4-pyridinyl)-1,3-thiazole-4-carboxamide trifluoroacetate], for which the pIC50 under setting [1] is 6.00 to 8.00.
On the same count and under the same terms, to `Cc1nc(Br)c(C(=O)NCc2ccc(Cl)c(Oc3cc(Cl)cc(C#N)c3)c2F)[nH]1` [Example 134, 4-bromo-N-({4-chloro-3-[(3-chloro-5-cyanophenyl)oxy]-2-fluorophenyl}methyl)-2-methyl-1H-imidazole-5-carboxamide] belongs over 8.00.
As for `COc1ccc2[nH]c3c(c2c1)CCN(Cc1ccc(Cl)c(Oc2cc(Cl)cc(C#N)c2)c1F)C3=O` [Example 38, 3-chloro-5-[(6-chloro-2-fluoro-3-{[6-(methyloxy)-1-oxo-1,3,4,9-tetrahydro-2H-β-carbolin-2-yl]methyl}phenyl)oxy]benzonitrile], under setting [1], the pIC50 is 6.00 to 8.00.
Same read-out and setting: to `CS(=O)(=O)c1ccc(C(=O)NCc2ccc(Cl)c(Oc3cc(Cl)cc(C#N)c3)c2)c(Cl)c1` [Example 8, 2-chloro-N-({4-chloro-3-[(3-chloro-5-cyanophenyl)oxy]phenyl}methyl)-4-(methylsulfonyl)benzamide] belongs 6.00 to 8.00.
Same read-out and setting: to `N#Cc1cc(Cl)cc(Oc2c(Cl)ccc(CNC(=O)c3cc4c5c(ccc4[nH]3)N(C(N)=O)CC5)c2F)c1` [Example 44, N^2-({4-chloro-3-[(3-chloro-5-cyanophenyl)oxy]-2-fluorophenyl}methyl)-7,8-dihydropyrrolo[3,2-e]indole-2,6(3H)-dicarboxamide] belongs over 8.00.
In the case of `C#Cc1cc(C#N)cc(Oc2c(Cl)ccc(CNC(=O)c3[nH]cnc3Cl)c2F)c1` [Example 310, 4-chloro-N-({4-chloro-3-[(3-cyano-5-ethynylphenyl)oxy]-2-fluorophenyl}methyl)-1H-imidazole-5-carboxamide], the pIC50 under setting [2] was over 8.00.
Still for that read-out and setting: to `N#Cc1cc(Cl)cc(Oc2c(Br)ccc(CNC(=O)c3[nH]c(N)nc3Br)c2F)c1` [Example 237, 2-amino-4-bromo-N-({4-bromo-3-[(3-chloro-5-cyanophenyl)oxy]-2-fluorophenyl}methyl)-1H-imidazole-5-carboxamide trifluoroacetate] belongs over 8.00.
Turning to `CN(C)CCCOc1ccc2[nH]c(C(=O)NCc3ccc(Cl)c(Oc4cc(Cl)cc(C#N)c4)c3F)cc2c1` [Example 102, N-({4-chloro-3-[(3-chloro-5-cyanophenyl)oxy]-2-fluorophenyl}methyl)-5-{[3-(dimethylamino)propyl]oxy}-1H-indole-2-carboxamide], the pIC50 under setting [1] is over 8.00.
`N#Cc1cc(Cl)cc(Oc2c(Cl)ccc(CNC(=O)c3nc4ccc([N+](=O)[O-])cc4[nH]3)c2F)c1` [Example 124, N-({4-chloro-3-[(3-chloro-5-cyanophenyl)oxy]-2-fluorophenyl}methyl)-5-nitro-1H-benzimidazole-2-carboxamide]: under setting [1], the pIC50 is 6.00 to 8.00.
Consider `CCc1ccc(CNC(=O)c2[nH]c(C)nc2Cl)c(F)c1Oc1cc(Cl)cc(C#N)c1` [Example 249, 4-chloro-N-({3-[(3-chloro-5-cyanophenyl)oxy]-4-ethyl-2-fluorophenyl}methyl)-2-methyl-1H-imidazole-5-carboxamide], for which the pIC50 under setting [2] was over 8.00.
Still for that read-out and setting: for `N#C/C=C/c1cc(Cl)cc(Oc2c(Cl)ccc(CNC(=O)c3[nH]cnc3Cl)c2F)c1` [Example 291, 4-chloro-N-{[4-chloro-3-({3-chloro-5-[(E)-2-cyanoethenyl]phenyl}oxy)-2-fluorophenyl]methyl}-1H-imidazole-5-carboxamide] the value was over 8.00.
For `Cc1c(C(=O)NCc2ccc(Cl)c(Oc3cc(Cl)cc(C#N)c3)c2F)[nH]c2ccccc12` [Example 39, N-({4-chloro-3-[(3-chloro-5-cyanophenyl)oxy]-2-fluorophenyl}methyl)-3-methyl-1H-indole-2-carboxamide], the pIC50 under setting [1] was over 8.00.
In the case of `N#Cc1cc(Cl)cc(Oc2c(Cl)ccc(CNC(=O)c3cc[nH]n3)c2F)c1` [Example 95, N-({4-chloro-3-[(3-chloro-5-cyanophenyl)oxy]-2-fluorophenyl}methyl)-1H-pyrazole-3-carboxamide], the pIC50 under setting [1] is 6.00 to 8.00.
The same measure, in the same setting: for `COc1ccc2cc(C(=O)NCc3ccc(Cl)c(Oc4cc(Cl)cc(C#N)c4)c3F)[nH]c2c1` [Example 21, N-({4-chloro-3-[(3-chloro-5-cyanophenyl)oxy]-2-fluorophenyl}methyl)-6-(methyloxy)-1H-indole-2-carboxamide] the value was 6.00 to 8.00.
`Cc1nc(Cl)c(C(=O)NCc2cc(C#N)c(Cl)c(Oc3cc(Cl)cc(C#N)c3)c2F)[nH]1` [Example 304, 4-chloro-N-({4-chloro-3-[(3-chloro-5-cyanophenyl)oxy]-5-cyano-2-fluorophenyl}methyl)-2-methyl-1H-imidazole-5-carboxamide trifluoroacetate]: the pIC50 under setting [2] was over 8.00.

(Values after patent US8304419B2, “Chemical compounds” (priority 2007, dated 2012).)
